Laboratory results: patent US6645915B1, “Substituted 1,3,5- triazines” (Nihon Bayer Agrochem K. K., priority 1998, dated 2003)

Legend:
[1] = logP by reversed-phase HPLC (EEC Directive 79/831 Annex V.A8); format: physicochemical; conditions: acetonitrile gradient; for logP: HPLC, reversed-phase C 18, 43° C., acidic range a): 0.1% aqueous phosphoric acid; for chromatographic logP: reversed-phase C18 HPLC column; HPLC, reversed-phase C 18, 43° C., acidic range a): 0.1% aqueous phosphoric acid
Procedure: The logP values given in Table 1 were determined in accordance with EEC Directive 79/831 Annex V.A8 by HPLC (High Performance Liquid Chromatography) using a reversed-phase column (C 18). Temperature: 43° C.
(a) Mobile phase for the determination in the acidic range: 0.1% aqueous phosphoric acid, acetonitrile; linear gradient from 10% acetonitrile to 90% acetonitrile—the corresponding data in Table 1 are labelled^a).
Calibration was carried out using unbranched alkan-2-ones (having from 3 to 16 carbon atoms) with known logP values (the logP values were determined using the retention times, by linear interpolation between two successive alkanones).

[2] = system: Echinocloa crus galli, Setaria viridis, Amaranthus lividus and Polygonum blumei MEISSN; experiment: Post-emergence test B-2; format: in vivo; conditions: post-emergence test B-2, plants in 2-leaf stage, rated after three weeks, in words
Procedure: (§1) To produce a suitable preparation of active compound, 1 part by weight of active compound is mixed with the stated amount of solvent, the stated amount of emulsifier is added and the concentrate is diluted with water to the desired concentration.
Test plants (Echinocloa crus galli, Setaria viridis, Amaranthus lividus and Polygonum blumei MEISSN) which, on average, are in the 2-leaf stage, are sprayed with the preparation of active compound such that the particular amounts of active compound desired are applied per unit area.
(§2) After three weeks, the degree of damage to the plants is rated in % damage in comparison to the development of the untreated control.
(§3) 0%=no effect (like untreated control)

[3] = system: Echinocloa crus galli, Setaria viridis, Amaranthus lividus and Polygonum blumei MEISSN; experiment: Pre-emergence test A-2; format: in vivo; conditions: pre-emergence test A-2, rated after four weeks, in words
Procedure: as §1
Seeds of the test plants (Echinocloa crus galli, Setaria viridis, Amaranthus lividus and Polygonum blumei MEISSN) are sown in normal soil. The soil is sprayed with the preparation of active compound such that the particular amount of active compound desired is applied per unit area.
After four weeks, the degree of damage to the plants is rated in % damage in comparison to the development of the untreated controls.
as §3

[4] = system: weeds; experiment: Post-emergence test B-1; format: in vivo; conditions: post-emergence test B-1, in words
Procedure: as §1
(§4) Test plants of a height of 5-15 cm are sprayed with the preparation of active compound such that the particular amounts of active compound desired are applied per unit area. The concentration of the spray liquor is chosen so that the particular amounts of active compound desired are applied in 1000 l of water/ha.
as §2, §3

[5] = system: Amaranthus; experiment: Post-emergence test B-1 / greenhouse; format: in vivo; conditions: 500 g of ai./ha, rated after three weeks, 0% = no effect, 100% = total destruction
Procedure: as §1, §4, §2, §3

[6] = system: Maize; experiment: Post-emergence test B-1 / greenhouse; format: in vivo; conditions: 500 g of ai./ha, rated after three weeks, 0% = no effect, 100% = total destruction
Procedure: as §1, §4, §2, §3

[7] = system: Setaria; experiment: Post-emergence test B-1 / greenhouse; format: in vivo; conditions: 500 g of ai./ha, rated after three weeks, 0% = no effect, 100% = total destruction
Procedure: as §1, §4, §2, §3

[8] = system: Sinapis; experiment: Post-emergence test B-1 / greenhouse; format: in vivo; conditions: 500 g of ai./ha, rated after three weeks, 0% = no effect, 100% = total destruction
Procedure: as §1, §4, §2, §3

[9] = system: Amaranthus; experiment: Pre-emergence test A-1 / greenhouse; format: in vivo; conditions: 500 g of ai./ha, rated after three weeks, 0% = no effect, 100% = total destruction
Procedure: as §1
(§5) Seeds of the test plants are sown in normal soil. After about 24 hours, the soil is sprayed with the preparation of active compound such that the particular amount of active compound desired is applied per unit area. The concentration of the spray liquor is chosen so that the particular amount of active compound desired is applied in 1000 litres of water per hectare.
as §2, §3

[10] = system: Maize; experiment: Pre-emergence test A-1 / greenhouse; format: in vivo
Procedure: as §1, §5, §2, §3

[11] = system: Abutilon; experiment: Pre-emergence test A-1 / greenhouse; format: in vivo; conditions: 500 g of ai./ha, rated after three weeks, 0% = no effect, 100% = total destruction
Procedure: as §1, §5, §2, §3

[12] = system: weeds; experiment: Pre-emergence test A-1; format: in vivo; conditions: pre-emergence test A-1, in words
Procedure: as §1, §5, §2, §3

[13] = system: Xanthium; experiment: Post-emergence test B-1 / greenhouse; format: in vivo; conditions: 500 g of ai./ha, rated after three weeks, 0% = no effect, 100% = total destruction
Procedure: as §1, §4, §2, §3

[14] = system: Abutilon; experiment: Post-emergence test B-1 / greenhouse; format: in vivo; conditions: 500 g of ai./ha, rated after three weeks, 0% = no effect, 100% = total destruction
Procedure: as §1, §4, §2, §3

| Compound | logP [1] | action against weeds [4] | % damage, Amaranthus [5] [%] | % damage, Setaria [7] [%] | % damage, Sinapis [8] [%] | further results |
| --- | --- | --- | --- | --- | --- | --- |
| CCC(=O)Nc1nc(N[C@@H](C)C2CCCCC2)nc(C(C)F)n1 (stereo partly shown) [Example 21] | logP = 3.11^a) (S enantiomer) |  |  |  |  |  |
| CC(C)CCCC(C)Nc1nc(N)nc(C(C)(C)F)n1 (racemic) [Example 31] |  |  |  |  |  | action against the abovementioned weeds [2]: strong action |
| CCC(=O)Nc1nc(N[C@@H](C)C2CCCCC2)nc(C(Cl)Cl)n1 [Example 23] | logP = 2.93^a) (S enantiomer) |  |  |  |  |  |
| CCC(CC)Nc1nc(NC(C)=O)nc(C(C)(C)F)n1 [Example 34] |  |  |  |  |  | action against the abovementioned weeds [3]: strong action |
| CCCC(C)Nc1nc(N)nc(C(C)(C)F)n1 (racemic) [Example 28] |  |  |  |  |  | action against the abovementioned weeds [2]: strong action |
| CCC(=O)Nc1nc(N[C@H](C)C2CCCCC2)nc(C(Cl)Cl)n1 [Example 17] | logP = 2.93^a) (R enantiomer) |  |  |  |  |  |
| CCC(=O)Nc1nc(N[C@@H](C)C2CCCCC2)nc(C(C)(C)F)n1 [Example 22] | logP = 3.26^a) (S enantiomer) |  |  |  |  |  |
| CCC(=O)Nc1nc(NC(C)C2CCCCC2)nc(C(C)(C)F)n1 (racemic) [Example 9] | logP = 3.30^a) (racemate) | strong action | 95 | 90 | 100 | % damage, Maize [6]: 30% |
| C[C@H](Nc1nc(N)nc([C@@H](C)F)n1)C1CCCCC1 [Example 1, (R,S)-N′-(1-cyclohexyl-ethyl)-6-(1-fluoro-ethyl)-1,3,5-triazine-2,4-diamine] |  | strong action | 100 | 100 | 100 | % damage, Amaranthus [9]: 100%; tolerance by crop plants, such as maize ([10]; pre-emergence test A-1, in words): tolerated very well; % damage, Maize ([10]; pre-emergence, 500 g of ai./ha, rated after three weeks, 0% = no effect, 100% = total destruction): 0%; % damage, Abutilon [11]: 80%; chromatographic logP [1]: 1.83; action against weeds [12]: strong action; % damage, Xanthium [13]: 100% |
| CC(Nc1nc(N)nc(C(C)(C)F)n1)C1CCCCC1 (racemic) [Example 7] | logP = 1.93^a) (racemate) | strong action | 100 | 100 | 100 | % damage, Xanthium [13]: 100% |
| CCC(=O)Nc1nc(N[C@H](C)C2CCCCC2)nc(C(C)(C)F)n1 [Example 16] | logP = 3.25^a) (R enantiomer) |  |  |  |  |  |
| CCC(=O)Nc1nc(N[C@@H](C)C2CCCCC2)nc([C@@H](C)F)n1 [Example 2, (R,S)-N-[4-(1-cyclohexyl-ethylamino)-6-(1-fluoro-ethyl)-1,3,5-triazin-2-yl]-propionamide] |  | strong action | 100 | 100 | 100 | chromatographic logP [1]: 3.14; % damage, Xanthium [13]: 100% |
| CCC(CC)Nc1nc(N)nc(C(C)(C)F)n1 [Example 33] |  |  |  |  |  | action against the abovementioned weeds [3]: strong action |
| CC(Nc1nc(N)nc(C(F)(F)Cl)n1)C1CCCCC1 (racemic) [Example 6] | logP = 3.51^a) (racemate) | strong action | 100 | 100 | 100 | % damage, Xanthium [13]: 100% |
| CCC(=O)Nc1nc(N[C@H](C)C2CCCCC2)nc(C(C)F)n1 (stereo partly shown) [Example 15] | logP = 3.11^a) (R enantiomer) |  |  |  |  |  |
| CC(C)CC(C)Nc1nc(N)nc(C(C)(C)F)n1 (racemic) [Example 29] |  |  |  |  |  | action against the abovementioned weeds [2]: strong action |
| CCC(CC)Nc1nc(N)nc(C(C)F)n1 (racemic) [Example 32] |  |  |  |  |  | action against the abovementioned weeds [3]: strong action |
| N-acetyl-N′-(1-ethylpropyl)-6-(1-fluoro-1-methylethyl)-1,3,5-triazine-2,4-diamine [Example 5] |  | strong action | 100 | 95 | 95 | % damage, Abutilon [14]: 90% |
| CCC(=O)Nc1nc(NC(C)C2CCCCC2)nc(C(F)(F)Cl)n1 (racemic) [Example 8] | logP = 4.23^a) (racemate) | strong action | 100 | 100 | 100 | % damage, Xanthium [13]: 100% |
| C[C@H](Nc1nc(NC=O)nc([C@@H](C)F)n1)C1CCCCC1 [Example 3, (R,S)-N-[4-(1-cyclohexyl-ethylamino)-6-(1-fluoro-ethyl)-1,3,5-triazin-2-yl]-formamide] |  | strong action | 100 | 100 | 100 | melting point: 127 °C; chromatographic logP [1]: 3.04; % damage, Abutilon [14]: 90% |
| N-(1-ethylpropyl)-6-(1-fluoro-1-methylethyl)-1,3,5-triazine-2,4-diamine [Example 4] |  | strong action | 100 | 100 | 100 | % damage, Xanthium [13]: 100% |
